As usually defined, the Km is the concentration of substrate that gives half-maximal velocity.

Structures are written as SMILES.

For this experiment, the target named is PASK (Homo sapiens, UniProt Q96RG2, F1266C/Y899H). The conditions noted are these: read-out: Km for PASK; ATP as co-substrate.
Sequence of PASK (Q96RG2 whole entry Y899H/F1266C): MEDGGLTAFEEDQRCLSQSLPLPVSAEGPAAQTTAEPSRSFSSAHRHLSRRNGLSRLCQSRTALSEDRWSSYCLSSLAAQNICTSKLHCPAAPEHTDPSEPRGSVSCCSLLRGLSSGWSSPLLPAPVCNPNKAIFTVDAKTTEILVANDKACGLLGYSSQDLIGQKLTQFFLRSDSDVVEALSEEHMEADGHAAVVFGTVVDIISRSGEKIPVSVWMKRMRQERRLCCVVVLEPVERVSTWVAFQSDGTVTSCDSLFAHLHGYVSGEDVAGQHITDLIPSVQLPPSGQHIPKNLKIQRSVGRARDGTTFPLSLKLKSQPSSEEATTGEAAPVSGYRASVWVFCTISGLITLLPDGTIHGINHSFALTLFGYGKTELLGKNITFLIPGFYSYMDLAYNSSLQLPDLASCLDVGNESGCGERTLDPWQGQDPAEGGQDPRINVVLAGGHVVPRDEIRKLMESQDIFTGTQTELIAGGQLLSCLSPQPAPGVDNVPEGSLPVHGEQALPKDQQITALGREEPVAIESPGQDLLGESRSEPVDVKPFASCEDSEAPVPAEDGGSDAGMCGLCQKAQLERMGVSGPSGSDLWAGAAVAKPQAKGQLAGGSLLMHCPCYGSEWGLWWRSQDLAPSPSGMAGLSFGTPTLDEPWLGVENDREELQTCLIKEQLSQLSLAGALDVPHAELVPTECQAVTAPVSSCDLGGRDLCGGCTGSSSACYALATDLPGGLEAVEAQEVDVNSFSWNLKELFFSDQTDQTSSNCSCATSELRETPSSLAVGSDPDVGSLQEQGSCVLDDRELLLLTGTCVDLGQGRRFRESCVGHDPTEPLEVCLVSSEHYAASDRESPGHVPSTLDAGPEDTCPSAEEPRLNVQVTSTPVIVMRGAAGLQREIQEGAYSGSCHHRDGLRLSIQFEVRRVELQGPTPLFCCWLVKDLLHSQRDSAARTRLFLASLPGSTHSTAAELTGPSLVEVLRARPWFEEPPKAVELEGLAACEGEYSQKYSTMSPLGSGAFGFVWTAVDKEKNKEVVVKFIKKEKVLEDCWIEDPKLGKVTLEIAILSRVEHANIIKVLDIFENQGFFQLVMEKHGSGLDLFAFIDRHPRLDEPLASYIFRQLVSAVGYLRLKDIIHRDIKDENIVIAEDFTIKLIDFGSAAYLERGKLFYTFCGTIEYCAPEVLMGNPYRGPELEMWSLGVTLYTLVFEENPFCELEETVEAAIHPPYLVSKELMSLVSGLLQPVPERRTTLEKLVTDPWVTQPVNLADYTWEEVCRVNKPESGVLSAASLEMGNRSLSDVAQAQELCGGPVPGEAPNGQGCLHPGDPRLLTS

Procedure: One HTS assay kinase assay we employ is a robust and simple, non-radioactive chemiluminescent assay that measures the ability of the human enzyme to phosphorylate a biotinylated derivative of the AMARA peptide. The enzyme is expressed in baculovirus and purified by affinity and ion-exchange chromatography under routine conditions. Assay buffer is composed of 20 mM Tris-HC1, pH 7.5, 10 mM MgC12, 2 mM EGTA, 0.1% NP-40, 0.5 mM benzamidine, 1 mM NaF and 10 mM DTT. Enzyme is added to this buffer at a concentration determined to be in the linear range of activity (10 ng per microtiter plate well). For the most robust and sensitive kinase assay, we use an ATP concentration matching the Kmfor PASK (2.5 mM). After dispensing 80 ul of the enzyme/buffer mix per well in Costar 96-well microtiter plates (coated with Neutravidin at 0.5 mg/ml at room temperature for 2 hr), 10 μl of test compounds is added at a final concentration of 1 μM compound. Compounds are diluted in DMSO from master plates stored in DMSO at 10 mM. Following compound addition, the reactions are initiated by addition of 10 μl of biotinylated AMARA peptide and ATP such that the final concentration of substrate and ATP are 1 mM and 2.5 mM respectively. […] Reactions are developed by addition of 100 μl of Super Signal substrate (Pierce) and read colorimetrically using a Wallac Victor2, 1420 Multilabel Counter.

For the molecule `Nc1ncnc2c1ncn2[C@@H]1O[C@H](COP(=O)(O)OP(=O)(O)OP(=O)(O)O)[C@@H](O)[C@H]1O` [ATP], the Km is 2500 µM.

The values are drawn from patent publication US7132278B2, “PAS kinase” (Board of Regents, The University of Texas System, priority 2001, dated 2006).
